Measured values published in article PMC7178511, “Antimicrobial Activity and DNA/BSA Binding Affinity of Polynuclear Silver(I) Complexes with 1,2-Bis(4-pyridyl)ethane/ethene as Bridging Ligands” (Bioinorganic Chemistry and Applications, 2020).
Converted amounts (≈) assume the structure as drawn. Marks after values point to notes of the source that are not given here.

Tests used:
[1] = test system: C. glabrata ATCC 2001; test: Broth microdilution MIC, C. glabrata; format: cell-based, Candida glabrata
Description: (§1) Stock solutions of bpa, bpe, and silver(I) complexes 1–3 were prepared fresh in DMSO (50 mg/mL) and kept at 4°C prior to use. Susceptibility testing of Candida spp. (C. albicans ATCC 10231, C. krusei ATCC 6258, C. parapsilosis ATCC 22019, and C. glabrata ATCC 2001) was performed according to CLSI broth microdilution guidelines (Clinical and Laboratory Standards Institute, Reference Method for Broth Dilution Antifungal Susceptibility Testing of Yeasts—Third Edition: Approved Standard M27-A3; Clinical and Laboratory Standards Institute, Reference Method for Broth Dilution Antifungal Susceptibility Testing of Yeasts: Fourth Informational Supplement M27-S4), in RPMI 1640 medium (Roswell Park Memorial Institute medium) containing 2% glucose (w/v). The highest tested concentration was 500 μg/mL, and the inocula were 1^·\10^5 colony forming units (cfu)/mL.

[2] = test system: genomic DNA isolated from C. albicans ATCC 10231; test: DNA interaction assay using gel electrophoresis; format: binding, Candida albicans; details: 40, 100 and 400 μM complex, 2 h, 30°C, Tris buffer pH 8.5
Description: DNA interaction assay using gel electrophoresis has also been conducted according to the previously published procedure using high molecular weight (HMW) genomic DNA isolated from C. albicans ATCC 10231. Briefly, DNA (50 ng/μL final concentration) was incubated with 40, 100, and 400 μM final concentration of silver(I) complexes 1–3 in Tris buffer, pH 8.5 in 50 μL reaction volume. After 2 h incubation at 30°C, 10 μL aliquots were taken, mixed with loading dye, and loaded on agarose gel. Control contained an appropriate volume of DMSO. DNA samples were run, 500 ng per lane, on 0.8% agarose gel with ethidium bromide (EthBr) against O'GeneRuler™ 1 kb Plus DNA Ladder (Thermo Scientific™) at 60 V for 1 h. Gels were visualized and analyzed using the Gel Doc EZ system (Bio-Rad, Life Sciences, Hercules, USA), equipped with the Image Lab™ Software.

[3] = test system: Salmonella enteritidis ATCC 13075; test: Broth microdilution MIC, S. enteritidis; format: cell-based; details: 24 h
Description: (§2) Minimal inhibitory concentration (MIC) values against Pseudomonas aeruginosa PA01, Staphylococcus aureus ATCC 43300, Salmonella enteritidis ATCC 13075, Salmonella pullorum ATCC 13036, Escherichia coli NCTC 9001, Listeria monocytogenes NCTC 11994, and Enterococcus faecalis ATCC 29212 were determined in Luria-Bertani broth (10.0 g/L tryptone, 10.0 g/L NaCl, 5.0 g/L yeast extract, pH 7.2) in accordance with the standard broth microdilution assay for bacteria that grow aerobically, as recommended by the CLSI (Clinical and Laboratory Standards Institute, Methods for Dilution Antimicrobial Susceptibility Tests for Bacteria That Grow Aerobically; Approved Standard—Tenth Edition M07-A10. CLSI). The highest tested concentration was 500 μg/mL, and the inocula were 1^·10^6 cfu/mL.

[4] = test system: Enterococcus faecalis ATCC 29212; test: Broth microdilution MIC, E. faecalis; format: cell-based
Description: as §2

[5] = test system: human lung fibroblast cell line MRC-5; test: MTT assay on a human fibroblast cell line; format: cell-based; details: MRC-5, MTT, 48 h
Description: (§3) Antiproliferative activity was tested by 3-(4,5-dimethylthiazol-2-yl)-2,5-diphenyltetrazolium bromide (MTT) assay on a human lung fibroblast cell line (MRC-5; ATCC collection). Pregrown (24 h) cell monolayers were incubated in the media containing the tested compounds at concentrations ranging from 5 to 500 μg/mL and the cell viability was measured after 48 h. RPMI 1640 medium supplemented with 100 μg/mL streptomycin, 100 U/mL penicillin, and 10% (v/v) FBS (all from Sigma, Munich, Germany) was used for the cultivation of MRC-5 cell line. Cells were maintained as a monolayer (1^·10^4 cells per well) in RPMI 1640 and grown in a humidified atmosphere of 95% air and 5% CO2 at 37°C. The extent of MTT reduction was measured spectrophotometrically at 540 nm using Tecan Infinite 200 Pro multiplate reader (Tecan Group Ltd, Männedorf, Switzerland), and the cell survival was expressed as a percentage of the control (untreated cells). Cytotoxicity was expressed as the concentration of the compound inhibiting cell growth by 50% (IC50).

[6] = test system: Escherichia coli NCTC 9001; test: Broth microdilution MIC, E. coli; format: cell-based
Description: as §2

[7] = test system: C. albicans ATCC 10231; test: Broth microdilution MIC, C. albicans; format: cell-based, Candida albicans
Description: as §1

[8] = test system: Listeria monocytogenes NCTC 11994; test: Broth microdilution MIC, L. monocytogenes; format: cell-based
Description: as §2

[9] = biological target: T1, bovine serum albumin (BSA) (Bos taurus, UniProt P02769); test: BSA tryptophan fluorescence quenching; format: binding; details: BSA 13.1 μM, Tris buffer pH 7.4
T1 construct: purchased Sigma-Aldrich
Description: The protein binding study was performed by tryptophan fluorescence quenching experiments using BSA (13.1 μM) in Tris buffer solution (pH 7.4). The quenching of the emission intensity of tryptophan residues of BSA at 352 nm was monitored using the increasing concentration of the complexes 1–3 (up to 464.9 μM). Fluorescence spectra were recorded in the range 280–500 nm with an excitation wavelength of 275 nm. The corresponding binding constants of the complexes (KA) and apparent binding sites (n) were calculated as it was previously explained.

[10] = test system: C. parapsilosis ATCC 22019; test: Broth microdilution MIC, C. parapsilosis; format: cell-based, Candida parapsilosis
Description: as §1

[11] = test system: calf thymus DNA (ctDNA); test: Competitive EthBr-DNA fluorescence binding experiment; details: Fluorescent titration, pH 7.4
Description: The competitive DNA-silver(I) complex binding experiments were carried out in the buffer (pH 7.4) by maintaining [DNA]/[EthBr] = 5, while increasing the concentration of the complexes 1–3. Each sample solution was scanned in the wavelength range 525–800 nm with an excitation wavelength of 520 nm. The Stern-Volmer constants (Ksv), which represent a measure of the binding propensity of the complexes to DNA, were calculated using the following equation [29]:(2) F0/F=1+Kqτ0complex=1+Ksvcomplex, where F0 and F are the fluorescence intensities in the absence and presence of the complexes, respectively. Kq stands for bimolecular quenching constant and τ0 (10^−8 s) is the lifetime of the fluorophore in the absence of the quencher. The binding constants (KA) and apparent binding sites (n) can be calculated by using the following equation [28]:(3) logF0−F/F=log KA+n logcomplex, where KA stands for the binding constant of the silver(I) complex with ctDNA and n stands for the apparent number of binding sites.

[12] = test system: Pseudomonas aeruginosa PAO1; test: Broth microdilution MIC, P. aeruginosa; format: cell-based
Description: as §2

[13] = test system: Salmonella pullorum ATCC 13036; test: Broth microdilution MIC, S. pullorum; format: cell-based; details: 24 h
Description: as §2

[14] = test system: C. krusei ATCC 6258; test: Broth microdilution MIC, C. krusei; format: cell-based, Candida krusei
Description: as §1

[15] = test system: C. albicans expressing red fluorescent protein; test: C. albicans filamentation study; format: cell-based, Candida albicans; details: MIC80 of complex, 6 h, 37°C, RPMI 1640 with 10% FBS
Description: The suspension of C. albicans expressing red fluorescent protein was prepared in RPMI 1640 medium with 10% (v/v) fetal bovine serum (FBS) to induce hyphae formation. The suspension was then treated with MIC80 concentrations of 1–3 at 37°C shaking. Cells treated with DMSO served as the control. After 6 h of incubation, the results were observed by a fluorescence microscope (Olympus BX51, Applied Imaging Corp., San Jose, CA, United States) under 20× magnification.

[16] = test system: Staphylococcus aureus ATCC 43300; test: Broth microdilution MIC, S. aureus; format: cell-based
Description: as §2

[17] = test system: C. albicans infected zebrafish; set-up: method as in PMID 30952084; details: at MIC doses; cited from earlier work
[18] = test system: C. albicans; set-up: method as in PMID 30952084; details: at MIC doses; cited from earlier work
[19] = test system: investigated bacterial strains; test: Broth microdilution MIC, panel of bacterial strains; format: cell-based
Description: as §2

[20] = MTT assay on a human fibroblast cell line; format: cell-based; details: human, MRC-5, MTT, read-out: IC50 (cytotoxic effect on MRC-5 cells)
Description: as §3

[21] = C. glabrata ATCC 2001, RPMI 1640 with 2% glucose
[22] = S. enteritidis ATCC 13075, Luria-Bertani broth, 37°C
[23] = E. faecalis ATCC 29212, Luria-Bertani broth, 24 h, 37°C
[24] = E. coli NCTC 9001, Luria-Bertani broth, 24 h, 37°C
[25] = C. albicans ATCC 10231, RPMI 1640 with 2% glucose
[26] = L. monocytogenes NCTC 11994, Luria-Bertani broth, 24 h, 37°C
[27] = C. parapsilosis ATCC 22019, RPMI 1640 with 2% glucose
[28] = P. aeruginosa PAO1, Luria-Bertani broth, 24 h, 37°C
[29] = S. pullorum ATCC 13036, Luria-Bertani broth, 37°C
[30] = C. krusei ATCC 6258, RPMI 1640 with 2% glucose
[31] = S. aureus ATCC 43300, Luria-Bertani broth, 24 h, 37°C

T1 sequence (P02769 25-607): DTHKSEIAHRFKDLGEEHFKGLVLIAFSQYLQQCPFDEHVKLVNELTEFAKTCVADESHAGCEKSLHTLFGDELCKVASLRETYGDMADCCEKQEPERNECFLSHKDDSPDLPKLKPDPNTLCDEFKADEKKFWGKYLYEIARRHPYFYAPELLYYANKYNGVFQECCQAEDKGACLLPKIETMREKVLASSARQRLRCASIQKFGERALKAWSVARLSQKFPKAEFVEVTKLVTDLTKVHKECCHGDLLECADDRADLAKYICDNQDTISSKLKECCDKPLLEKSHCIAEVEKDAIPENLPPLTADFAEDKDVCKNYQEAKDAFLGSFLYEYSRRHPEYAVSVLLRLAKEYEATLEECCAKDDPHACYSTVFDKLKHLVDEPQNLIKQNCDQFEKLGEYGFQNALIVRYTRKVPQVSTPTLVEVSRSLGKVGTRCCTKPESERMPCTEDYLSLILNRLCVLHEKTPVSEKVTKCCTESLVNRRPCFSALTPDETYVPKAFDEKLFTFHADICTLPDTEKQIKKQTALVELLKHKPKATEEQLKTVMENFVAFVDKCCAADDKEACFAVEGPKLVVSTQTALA

Compound | MIC [1, 21] [µg/mL] | interaction with C. albicans genomic DNA (emission of EthBr-DNA system on gel) [2] | MIC [3, 22] [µg/mL] | MIC [4, 23] [µg/mL] | IC50 (cytotoxic effect on MRC-5 cells) [5] | MIC [6, 24] | MIC [7, 25] [µg/mL] | MIC [8, 26] [µg/mL] | Tryptophan fluorescence quenching (emission decrease at 352 nm) [9] [%] | n (number of binding sites per albumin) [9] | MIC [10, 27] [µg/mL] | Hypochromism [11] [%] | MIC [12, 28] [µg/mL] | MIC [13, 29] [µg/mL] | MIC [14, 30] [µg/mL] | effect on C. albicans hyphae formation [15] | MIC [16, 31] [µg/mL] | outcome of infected zebrafish [17] | effect on C. albicans filamentation [18] | also measured
O=[N+]([O-])[O-].[Ag+].c1cc(CCc2ccncc2)ccn1 [Complex 1, {[Ag(bpa)]NO3}n] | 6.25 | Slightly higher interaction | 50 | 12.5 | 40^b μg/mL | 12.5^a μg/mL | 6.25 | 50 | 65.65 | 1.14 | 3.1 | 11.3 | 50 | 25 | 6.25 | did not significantly affect the hyphae formation | 50 | – | – | effect on C. albicans growth under filamentation conditions [15]: reduced the growth
O.O=S(=O)([O-])C(F)(F)F.[Ag+].c1cc(CCc2ccncc2)ccn1.c1cc(CCc2ccncc2)ccn1 [Complex 2, {[Ag(bpa)2]CF3SO3^.H2O}n] | 12.5 | Slightly higher interaction | 50 | 25 | 30 µg/mL | 12.5 µg/mL | 6.25 | 50 | 76.10 | 1.10 | 2.5 | 12.0 | 200 | 12.5 | 3.1 | decreased number and length of hyphae | 200 | – | – | –
C(=C\c1ccncc1)/c1ccncc1.O=S(=O)([O-])C(F)(F)F.[Ag+] [Complex 3, {[Ag(bpe)]CF3SO3}n] | 25 | – | 200 | 25 | 40 µg/mL | 12.5 µg/mL | 25 | 25 | 81.13 | 1.30 | 3.1 | 3.8 | 25 | 250 | 6.25 | did not significantly affect the hyphae formation | 100 | – | – | K A [11]: 59.16 M⁻¹
O=C([O-])C(F)(F)F.[Ag+].c1cnc2ccc3ncccc3c2c1 [[Ag(CF3COO)(4,7-phen)]n] | – | – | – | – | – | – | – | – | – | – | – | – | – | – | – | – | – | rescued the infected zebrafish of the lethal infection outcome | totally prevented C. albicans filamentation | –
O=[N+]([O-])[O-].[Ag+].c1cnc2ccc3ncccc3c2c1 [[Ag(NO3)(4,7-phen)]n] | – | – | – | – | – | – | – | – | – | – | – | – | – | – | – | – | – | rescued the infected zebrafish of the lethal infection outcome | totally prevented C. albicans filamentation | –
c1cc(CCc2ccncc2)ccn1 [bpa, 1,2-Bis(4-pyridyl)ethane] | – | – | – | – | – | – | – | – | – | – | – | – | – | – | – | – | – | – | – | MIC ([1]; Nakaseomyces glabratus, ATCC2001): > 500 µg/mL; MIC / antibacterial activity [19]: not significant; MIC ([3]; Salmonella enterica): > 500 µg/mL; MIC ([4]; Enterococcus faecalis, ATCC29212, 24 h): > 500 µg/mL; IC50 at 48 h [20]: 300 µg/mL (≈ 1630 µM); MIC ([6]; Escherichia coli, NCTC9001, 24 h): > 500 µg/mL; MIC ([7]; Candida albicans, ATCC10231): 125 µg/mL (≈ 678 µM); MIC ([8]; Listeria monocytogenes, NCTC11994, 24 h): > 500 µg/mL; MIC ([10]; Lodderomyces parapsilosis, ATCC22019): 250 µg/mL (≈ 1360 µM); MIC ([12]; Pseudomonas aeruginosa, PAO1, 24 h): > 500 µg/mL; MIC ([13]; Salmonella enterica): > 500 µg/mL; MIC ([14]; Pichia kudriavzevii, ATCC6258): 125 µg/mL (≈ 678 µM); MIC ([16]; Staphylococcus aureus, ATCC43300, 24 h): > 500 µg/mL
